Measurements taken from US7541341B2, “Glucopyranosyloxybenzylbenzene derivatives and medicinal use thereof” (Kissei Pharmaceutical Co., Ltd., priority 2001, dated 2009).

Assays:
SD rats = assay: Assay for the facilitatory effect on urinary glucose excretion; type: in vivo; conditions: fasted male SD rats, sucrose 2.5 g/kg load, 24 hours urine
Description: Assay for the Facilitatory Effect on Urinary Glucose Excretion
As experimental animals, overnight fasted SD rats (Japan SLC. Inc., male, 7-8 weeks of age, 205-272 g) were used. A Test compound was suspended in 0.5% sodium carboxymethylcellulose solution at the concentration of 2 mg/mL. When a homogenous suspension was not obtained in this condition, the test compound was dissolved in ethanol at the concentration of 100 mg/mL of its active form and then 2 mg/mL suspension was obtained by adding this solution to 49 times volumes of 0.5% sodium carboxymethylcellulose solution. Apart of this suspension was diluted with 0.5% sodium carboxymethylcellulose solution and then 0.6 and 0.2 mg/mL suspensions were prepared. After the body weights of rats were measured, the test suspension was orally administered at the dose of 5 mL/kg (1, 3 and 10 mg/kg). For control, just only 0.5% sodium carboxymethylcellulose solution was orally administered at the dose of 5 mL/kg. Immediately after this oral administration, 500 g/L sucrose solution was orally administered at the dose of 5 mL/kg (2.5 g/kg). The oral administration was performed with gastric tube for rat and 2.5 mL syringe. The head count in one group was 3. Collection of urine was performed in metabolic cage after the sucrose administration was finished. The sampling time for collection of urine was 24 hours after the sucrose administration. After collection of urine was finished, the urine volume was recorded and the urinary glucose concentration was measured. The glucose concentration was measured with a kit for laboratory test: Glucose B-Test WAKO (Wako Pure Chemical Industries, Ltd.). The amount of urinary glucose excretion in 24 hours per 200 g of body weight was calculated from urine volume, urinary glucose concentration and body weight.

SD rat = assay: Acute toxicity test; type: in vivo; conditions: oral 1000 mg/kg; male SD rat, 5 animals in each group; observation for 24 hours
Description: A 100 mg/mL suspension was prepared by adding 0.5% sodium carboxymethylcellulose solution to a test compound. Five week old male SD rat (CLEA JAPAN, INC., 124-128 g, 5 animals in each group) were used as test animals after fasted overnight. The above-mentioned suspension was orally administered at the dose 10 mL/kg (1000 mg/kg) to the test animals, and observation was performed for 24 hours.

human SGLT2 = target: T1, human SGLT2 (Homo sapiens, UniProt P31639, I433V); assay: Assay for inhibitory effect on human SGLT2 activity (uptake of methyl-α-D-glucopyranoside in COS-7 cells transiently expressing human SGLT2); type: cell-based; conditions: methyl-α-D-(U-14C)glucopyranoside uptake, 37° C., 2 hours
T1 construct: expressed in transfected cells; host or cells: COS-7 cells (RIKEN CELL BANK RCB0539), transient, electroporation of KL29
T1 sequence (P31639 1-672 I433V): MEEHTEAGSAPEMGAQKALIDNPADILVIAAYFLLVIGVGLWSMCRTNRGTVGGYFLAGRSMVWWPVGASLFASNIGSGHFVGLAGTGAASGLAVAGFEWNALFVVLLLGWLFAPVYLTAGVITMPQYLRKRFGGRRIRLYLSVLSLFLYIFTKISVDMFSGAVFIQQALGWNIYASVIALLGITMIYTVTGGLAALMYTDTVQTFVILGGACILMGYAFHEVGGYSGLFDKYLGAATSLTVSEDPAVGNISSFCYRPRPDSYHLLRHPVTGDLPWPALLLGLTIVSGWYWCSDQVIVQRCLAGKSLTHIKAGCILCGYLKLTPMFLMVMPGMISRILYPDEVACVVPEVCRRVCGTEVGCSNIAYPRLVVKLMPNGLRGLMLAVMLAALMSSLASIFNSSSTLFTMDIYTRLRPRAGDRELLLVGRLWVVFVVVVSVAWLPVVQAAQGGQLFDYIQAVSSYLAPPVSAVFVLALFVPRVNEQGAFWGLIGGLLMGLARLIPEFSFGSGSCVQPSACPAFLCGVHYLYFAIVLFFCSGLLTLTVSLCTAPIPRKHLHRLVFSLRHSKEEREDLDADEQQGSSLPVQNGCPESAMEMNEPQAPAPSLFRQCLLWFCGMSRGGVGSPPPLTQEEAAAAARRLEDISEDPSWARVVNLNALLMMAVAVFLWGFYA
Description: Assay for Inhibitory Effect on Human SGLT2 Activity
1) Construction of the Plasmid Vector Expressing Human SGLT2
Preparation of the cDNA library for PCR amplification was performed by reverse transcription of a total RNA deprived from human kidney (Ori gene) with oligo dT as the primer, using […] Preamplification System (Gibco-BRL: LIFE TECHNOLOGIES). The DNA fragment coding for human SGLT2 was amplified by the PCR reaction, in which the human kidney cDNA library described above was used as the template and the following oligo nucleotides 0702F and 0712R, presented as SEQ ID NO:1 and SEQ ID NO:2 respectively, were used as the primers. The amplified DNA fragment was ligated into pCR-Blunt (Invitrogen), a vector for cloning, according to standard method of the kit. The Escherichia coli HB101 was transformed according to usual method and then selection of the transformants was performed on the LB agar medium containing 50 μg/mL of kanamycin. […] After plasmid DNA was extracted and purified from this transformant, the base sequence of the DNA fragment inserted at the multi-cloning sites of the vector pcDNA3.1 (−) Myc/His-B was analyzed. […]

For CC(=O)OCCc1ccc(Cc2ccccc2O[C@@H]2O[C@H](COC(C)=O)[C@@H](O)[C@H](O)[C@H]2O)cc1 [Example 40, 2-[4-(2-Acetoxyethyl)benzyl]phenyl 6-O-acetyl-β-D-glucopyranoside], the “Amount of urinary glucose excretion” value (SD rats; oral dose 1 mg/kg) was 0.0 mg/24 hours/200 g body weight, the “Amount of urinary glucose excretion” value (SD rats; oral dose 3 mg/kg) was 4.1 mg/24 hours/200 g body weight and the “Amount of urinary glucose excretion” value (SD rats; oral dose 10 mg/kg) was 55.9 mg/24 hours/200 g body weight.

For CCOC(=O)OC[C@H]1O[C@@H](Oc2cc(CO)ccc2Cc2ccc(CC)cc2)[C@H](O)[C@@H](O)[C@@H]1O [Example 1, 2-(4-Ethylbenzyl)-5-hydroxymethylphenyl 6-O-ethoxycarbonyl-β-D-glucopyranoside], the “Amount of urinary glucose excretion” value (SD rats; oral dose 1 mg/kg) was 7.0 mg/24 hours/200 g body weight, the “Amount of urinary glucose excretion” value (SD rats; oral dose 3 mg/kg) was 82.1 mg/24 hours/200 g body weight and the “Amount of urinary glucose excretion” value (SD rats; oral dose 10 mg/kg) was 195.8 mg/24 hours/200 g body weight. For the same compound, the Number of death (SD rat) was 0/5.

Work on OCC=Cc1ccc(Cc2ccccc2OC2OC(CO)C(O)C(O)C2O)cc1 [Reference Example 49, (E)-2-[4-(3-Hydroxy-1-prop-1-en-1-yl)benzyl]phenyl β-D-glucopyranoside] yielded an IC50 (human SGLT2) of 120 nM.
